Source: patent US9738613B2, “Substituted 1,2,3-triazoles as antitumor agents” (National Central University, priority 2015, dated 2017)
Where a name gives a salt, the structure may show the parent alone. Read-outs that look alike come from different tables or passages of the source.

Tests used:
PC-3 cells = assay: Sulforhodamine B (SRB) growth inhibition assay, PC-3 cells; assay type: cell-based, Human
Procedure: (§1) Human hormone-refractory prostate cancer cell lines PC-3 and DU-145 were from American Type Culture Collection (Rockville, MD). Cells were cultured in RPMI 1640 medium with 10% FBS (v/v) and penicillin (100 U/ml)/streptomycin (100 μg/ml). Cultures were maintained in a humidified incubator at 37° C. in 5% CO2/95% air.
(§2) Cells were seeded in 96-well plates in medium with 5% FBS. After 24 hours, cells were fixed with 10% TCA to represent cell population at the time of drug addition (T0). After additional incubation of DMSO or the compound for 48 hours (PC-3 cells) or 72 hours (DU145 cells), cells were fixed with 10% TCA and SRB at 0.4% (w/v) in 1% acetic acid was added to stain cells. Unbound SRB was washed out by 1% acetic acid and SRB bound cells were solubilized with 10 mM Trizma base. The absorbance was read at a wavelength of 515 nm. Using the following absorbance measurements, such as time zero (T0), control growth (C), and cell growth in the presence of the compound (Tx), the percentage growth was calculated at each of the compound concentrations levels. Percentage growth inhibition was calculated as: [1−(Tx−T0)/(C−T0)]×100%. Growth inhibition of 50% (IC50) is determined at the compound concentration which results in 50% reduction of total protein increase in control cells during the compound incubation. Data are expressed as mean±SEM of three to five determinations.

DU-145 cells = assay: Sulforhodamine B (SRB) growth inhibition assay, DU-145 cells; assay type: cell-based, Human
Procedure: as §1, §2

[1] = Homo sapiens, PC-3 cells, 48 hours, bound stated, read-out: IC50 in PC-3 cells (text summary of Table 1)
[2] = human hormone-refractory prostate cancer PC-3 cells, 48 hours incubation, read-out: PC-3 cells IC50
[3] = Homo sapiens, DU-145 cells, 72 hours, bound stated, read-out: IC50 in DU-145 cells (text summary of Table 1)
[4] = human hormone-refractory prostate cancer DU-145 cells, 72 hours incubation, read-out: DU-145 cells IC50

IC50 (PC-3 cells; [1]) [µM] | IC50 (PC-3 cells; [2]) [µM] | IC50 (DU-145 cells; [3]) [µM] | IC50 (DU-145 cells; [4]) [µM] | Molecule
< 10 | 5.31 | < 5 | 4.2 | CCCCCCCCCCCCCn1cc(CC(N)(CO)CO)nn1 [Compound 11, 2-Amino-2-((1-tridecyl-1H-1,2,3-triazol-4-yl)methyl)propane-1,3-diol hydrochloride]
< 5 | 4.9 | < 5 | 4.7 | CCCCCCCCCCCCCCn1cc(CC(N)(CO)CO)nn1 [Compound 1, 2-Amino-2-((1-tetradecyl-1H-1,2 ,3-triazol-4-yl)methyl)propane-1,3-diol hydrochloride]
< 5 | 4.2 | < 10 | 5.4 | CCCCCCCCCCCCCCn1cc(CCCC(N)(CO)CO)nn1 [Compound 9, 2-Amino-2-(3-(1-tetradecyl-1H-1,2,3-triazol-4-yl)propyl)propane-1,3-diol hydrochloride]
< 10 | 6.2 | – | – | CCCCCCCCCCCCCCCCn1cc(CCC(N)(CO)CO)nn1 [Compound 6, 2-Amino-2-(2-(1-hexadecyl-1H-1,2,3-triazol-4-yl)ethyl)propane-1,3-diol hydrochloride]
< 5 | 3.3 | < 10 | 5.3 | CCCCCCCCCCCCCCCCn1cc(CC(N)(CO)CO)nn1 [Compound 2, 2-Amino-2-((1-hexadecyl-1H-1,2,3-triazol-4-yl)methyl)propane-1,3-diol hydrochloride]
< 5 | 4.5 | < 10 | 5.7 | CCCCCCCCCCCCCCCCCCn1cc(CC(N)(CO)CO)nn1 [Compound 3, 2-Amino-2-((1-octadecyl-1H-1,2,3-triazol-4-yl)methyl)propane-1,3-diol hydrochloride]
< 5 | 3.8 | < 10 | 6.2 | CCCCCCCCCCCCCCCCCCCCn1cc(CC(N)(CO)CO)nn1 [Compound 8, 2-Amino-2-((1-icosyl-1H-1,2,3-triazol-4-yl)methyl)propane-1,3-diol hydrochloride]
< 5 | 2.99 | < 5 | 4.68 | CCCCCCCCCCCCCCCCCCCCn1cc(CC(CO)(COC)NC)nn1 (stereo not shown) [Compound 12, 3-(1-Icosyl-1H-1,2,3-triazol-4-yl)-2-(methoxymethyl)-2-(methylamino)propan-1-ol]
< 10 | 7.9 | – | > 10 | CCCCCCCCCCCCCCCCCCn1cc(CC(N)(C(=O)OCC)C(=O)OCC)nn1 [Compound 7, Diethyl 2-amino-2-((1-octadecyl-1H-1,2,3-triazol-4-yl)methyl)malonate hydrochloride]
< 5 | 3.6 | < 5 | 2.4 | CCCCCCCCCCCCCCCCCCn1cc(CCC(N)(CO)CO)nn1 [Compound 4, 2-Amino-2-(2-(1-octadecyl-1H-1,2,3-triazol-4-yl)ethyl)propane-1,3-diol hydrochloride]

Molecule | IC50 (PC-3 cells; [1]) [µM] | IC50 (PC-3 cells; [2]) [µM] | IC50 (DU-145 cells; [3]) [µM] | IC50 (DU-145 cells; [4]) [µM]
2-Amino-2-(4-(1-tetradecyl-1H-1,2,3-triazol-4-yl)butyl)propane-1,3-diol hydrochloride [Compound 10] | – | 8.97 | – | 6.2
2-Amino-2-((1-pentadecyl-1H-1,2,3-triazol-4-yOmethyl)propane-1,3-diol hydrochloride [Compound 5] | – | 3.5 | – | –
